According to US12371428B2 (Exelixis, Inc., priority 2019, dated 2025):

Experiments:
[1] = target: Human KDR (residues K790-V1356) (Homo sapiens (Human), UniProt P35968); test: Human KDR kinase assay, 33P-phosphoryl transfer radiometric (Example B-1, KinaseProfiler); type: biochemical; conditions: protocol of Example B-1 (compounds 21-27, 41-47, 99, 104)
Description: (§1) Kinase activity and compound inhibition were investigated using the ^33P-Phosphoryl transfer radiometric kinase assay, performed using the KinaseProfiler™ service of Eurofins Pharma Discovery Services UK Limited. Dose-response experiments were performed using nine compound concentrations in a 96-well microtiter plate. For each assay, all compounds were prepared to a 50× final assay concentration (50 μM) in 100% DMSO, then diluted in a half-log series, with the final top concentration at 1 μM. This working stock of the compound was added to the assay well as the first component in the reaction, followed by the remaining components as detailed in the following assay protocols below. The positive control wells (100% kinase activity) contain all components of the reaction including 2% DMSO (control for solvent effects), except the compound of interest. Blank wells contain all components of the reaction, with the reference inhibitor, staurosporine. This reference compound was used to abolish kinase activity and generated the 0% kinase activity base-line. IC50 values were calculated by nonlinear regression analysis using the sigmoidal dose-response (variable slope) curve fit on XLFit version 5.3 (ID Business Solutions).
(§2) Example B-1: Human KDR (residues K790-V1356, 55 nM) was incubated with 8 mM MOPS pH 7.0, 0.2 mM EDTA, 0.33 mg/mL myelin basic protein, 10 mM magnesium acetate, and 10 μM [γ-^33P-ATP]. The reaction was initiated by the addition of the Mg/ATP mix. After incubation for 40 minutes at room temperature, the reaction was stopped by the addition of phosphoric acid to a concentration of 0.5%. A reaction aliquot of 10 μL was then spotted onto a P30 filtermat and washed four times for 4 minutes in 0.425% phosphoric acid and once in methanol prior to drying and scintillation counting. Incorporated ^33P was measured using the Wallac Microbeta scintillation counter (Perkin Elmer).

[2] = target: Human Met (residues R974-S1390 with A1209G and V1290L) (Homo sapiens, UniProt P08581); test: Human Met kinase assay, 33P-phosphoryl transfer radiometric (Example D-1, KinaseProfiler); type: biochemical; conditions: protocol of Example D-1 (compounds 21-27, 41-47, 99, 104); read-out: c-Met IC50
Description: as §1
as §2, with “D-1:” for “B-1:”, “Met” for “KDR”, “R974-S1390 with A1209G and V1290L, 3.4” for “K790-V1356, 55”, “250 µM […] (SEQ ID NO:3), 1 mM sodium orthovanadate, 5 mM […],” for “0.33 mg/mL myelin basic protein,”

[3] = target: Met (phospho-Met, HGF-stimulated PC-3 prostate cancer cells) (Homo sapiens (Human), UniProt P08581); test: Met autophosphorylation ELISA in PC-3 cells (Example F); type: cell-based; conditions: cellular activity; Met autophosphorylation ELISA in PC-3 cells; read-out: c-Met IC50
Summary of the method: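 IC50 values derive from a 4-parameter logistic fit of phospho-Met (panTyr) sandwich ELISA signals in PC-3 lysates, scaled between DMSO and reference-inhibitor wells. Cells, starved 3 h in serum-free medium, had 1 h compound exposure (8 doses, 0.3% DMSO) before 10 min stimulation with 100 ng/mL HGF.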

[4] = target: KDR (phospho-KDR, VEGF165-stimulated HUVEC cells) (Homo sapiens (Human), UniProt P35968); test: KDR autophosphorylation ELISA in HUVEC cells (Example G); type: cell-based; conditions: cellular activity; KDR autophosphorylation ELISA in HUVEC cells
Summary of the method: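 Read-out: phospho-KDR in cell lysates by DuoSet IC ELISA, normalised between VEGF-stimulated DMSO wells (100%) and unstimulated wells (0%). Human endothelial cells were starved overnight in serum-free medium, exposed to compound for 1 h, and then pulsed with 100 ng/mL VEGF165 for 5 min.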

Chain of Met (phospho-Met, HGF-stimulated PC-3 prostate cancer cells) (P08581 25-1390): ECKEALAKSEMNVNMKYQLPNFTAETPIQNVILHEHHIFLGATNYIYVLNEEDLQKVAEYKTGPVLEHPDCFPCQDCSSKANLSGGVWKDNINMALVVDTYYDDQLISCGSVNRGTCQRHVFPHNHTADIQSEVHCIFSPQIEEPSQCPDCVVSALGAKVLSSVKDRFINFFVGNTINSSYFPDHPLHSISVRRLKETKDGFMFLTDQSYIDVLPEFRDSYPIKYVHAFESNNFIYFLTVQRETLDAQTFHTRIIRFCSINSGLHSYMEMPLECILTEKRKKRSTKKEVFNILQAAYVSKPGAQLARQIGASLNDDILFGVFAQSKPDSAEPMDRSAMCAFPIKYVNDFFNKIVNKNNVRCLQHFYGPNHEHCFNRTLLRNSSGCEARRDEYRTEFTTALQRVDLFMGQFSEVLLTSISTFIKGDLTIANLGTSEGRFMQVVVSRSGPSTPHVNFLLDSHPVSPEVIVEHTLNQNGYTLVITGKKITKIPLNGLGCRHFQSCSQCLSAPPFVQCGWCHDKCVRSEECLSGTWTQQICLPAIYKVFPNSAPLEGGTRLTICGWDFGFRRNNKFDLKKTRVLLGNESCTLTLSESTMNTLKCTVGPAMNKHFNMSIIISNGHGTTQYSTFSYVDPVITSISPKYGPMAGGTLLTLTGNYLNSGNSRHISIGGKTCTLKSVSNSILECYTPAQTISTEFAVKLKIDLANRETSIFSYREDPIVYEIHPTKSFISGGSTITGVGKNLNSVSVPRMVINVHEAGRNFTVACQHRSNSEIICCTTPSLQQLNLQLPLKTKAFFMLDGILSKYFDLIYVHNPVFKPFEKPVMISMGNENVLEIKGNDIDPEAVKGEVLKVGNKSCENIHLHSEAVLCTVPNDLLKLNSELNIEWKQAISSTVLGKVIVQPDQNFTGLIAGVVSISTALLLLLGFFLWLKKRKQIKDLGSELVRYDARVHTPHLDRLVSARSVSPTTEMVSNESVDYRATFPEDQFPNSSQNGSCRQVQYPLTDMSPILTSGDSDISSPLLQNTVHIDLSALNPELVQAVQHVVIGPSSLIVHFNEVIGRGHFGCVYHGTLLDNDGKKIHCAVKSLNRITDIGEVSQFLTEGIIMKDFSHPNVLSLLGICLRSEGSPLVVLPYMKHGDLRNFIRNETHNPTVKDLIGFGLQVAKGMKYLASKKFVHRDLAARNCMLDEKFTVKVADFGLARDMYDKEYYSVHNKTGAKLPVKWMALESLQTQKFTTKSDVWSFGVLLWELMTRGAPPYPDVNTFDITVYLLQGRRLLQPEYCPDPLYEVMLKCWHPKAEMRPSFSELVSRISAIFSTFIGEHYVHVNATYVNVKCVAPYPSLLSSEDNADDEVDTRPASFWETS
Chain of Human Met (residues R974-S1390 with A1209G and V1290L) (P08581 25-1390 limits assumed, stated change not applied): as the sequence (P08581 25-1390) above
Chain of Human KDR (residues K790-V1356) (P35968 790-1356): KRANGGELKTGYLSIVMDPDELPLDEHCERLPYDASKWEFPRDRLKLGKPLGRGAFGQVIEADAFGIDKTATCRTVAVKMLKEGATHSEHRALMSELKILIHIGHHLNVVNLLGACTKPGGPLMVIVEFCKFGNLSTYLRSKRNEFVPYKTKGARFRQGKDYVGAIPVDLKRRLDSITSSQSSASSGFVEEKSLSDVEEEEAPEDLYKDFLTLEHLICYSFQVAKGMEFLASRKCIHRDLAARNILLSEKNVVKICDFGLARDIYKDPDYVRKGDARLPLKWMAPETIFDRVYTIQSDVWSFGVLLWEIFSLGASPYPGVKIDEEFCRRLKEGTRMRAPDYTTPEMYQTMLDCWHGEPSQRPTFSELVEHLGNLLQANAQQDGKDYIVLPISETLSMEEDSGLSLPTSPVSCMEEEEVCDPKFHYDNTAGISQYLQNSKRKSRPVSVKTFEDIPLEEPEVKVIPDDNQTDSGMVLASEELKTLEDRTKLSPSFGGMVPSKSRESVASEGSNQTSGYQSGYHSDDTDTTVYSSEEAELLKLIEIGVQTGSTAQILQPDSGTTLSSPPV
Chain of KDR (phospho-KDR, VEGF165-stimulated HUVEC cells) (P35968 20-1356): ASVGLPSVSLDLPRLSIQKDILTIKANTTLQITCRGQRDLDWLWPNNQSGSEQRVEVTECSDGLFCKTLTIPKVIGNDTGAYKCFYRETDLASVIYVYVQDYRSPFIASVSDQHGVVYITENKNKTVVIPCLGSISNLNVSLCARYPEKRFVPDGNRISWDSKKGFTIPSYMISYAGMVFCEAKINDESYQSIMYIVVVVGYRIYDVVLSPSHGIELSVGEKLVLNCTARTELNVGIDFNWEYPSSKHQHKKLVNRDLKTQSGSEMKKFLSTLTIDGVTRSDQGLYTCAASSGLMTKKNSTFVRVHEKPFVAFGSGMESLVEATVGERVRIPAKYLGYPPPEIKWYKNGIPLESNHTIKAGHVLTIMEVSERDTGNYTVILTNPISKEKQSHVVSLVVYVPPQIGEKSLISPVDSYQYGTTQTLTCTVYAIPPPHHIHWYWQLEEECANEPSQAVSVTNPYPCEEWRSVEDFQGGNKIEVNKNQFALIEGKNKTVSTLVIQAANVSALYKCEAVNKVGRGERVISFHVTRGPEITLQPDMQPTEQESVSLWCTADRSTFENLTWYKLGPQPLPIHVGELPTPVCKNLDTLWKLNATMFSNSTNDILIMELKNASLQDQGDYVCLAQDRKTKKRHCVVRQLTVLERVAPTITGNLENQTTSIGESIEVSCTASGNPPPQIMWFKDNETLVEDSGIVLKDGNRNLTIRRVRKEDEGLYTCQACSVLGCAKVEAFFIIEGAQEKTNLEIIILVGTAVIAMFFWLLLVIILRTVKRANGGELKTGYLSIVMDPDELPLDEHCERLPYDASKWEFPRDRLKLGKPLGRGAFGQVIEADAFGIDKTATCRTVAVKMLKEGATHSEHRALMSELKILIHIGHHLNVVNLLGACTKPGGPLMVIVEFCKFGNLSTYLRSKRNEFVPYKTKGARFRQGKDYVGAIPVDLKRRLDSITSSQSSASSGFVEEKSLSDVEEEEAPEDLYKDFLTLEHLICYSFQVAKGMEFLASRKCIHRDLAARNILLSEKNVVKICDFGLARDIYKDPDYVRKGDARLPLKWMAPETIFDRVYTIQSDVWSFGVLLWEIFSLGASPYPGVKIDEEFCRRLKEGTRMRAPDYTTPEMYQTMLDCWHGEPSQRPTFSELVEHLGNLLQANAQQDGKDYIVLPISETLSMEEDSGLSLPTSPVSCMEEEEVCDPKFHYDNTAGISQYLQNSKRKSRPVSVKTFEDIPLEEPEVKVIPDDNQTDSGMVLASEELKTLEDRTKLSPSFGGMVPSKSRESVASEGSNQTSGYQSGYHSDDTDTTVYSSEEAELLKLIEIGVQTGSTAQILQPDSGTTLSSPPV

Row | Structure (SMILES) | IC50 [1] [nM] | IC50 [2] [nM] | IC50 [3] [nM] | IC50 [4] [nM]
1 | COc1cc2nccc(Oc3ccc(NC(=O)c4cn(C(C)C)cc(-c5ccc(F)cc5)c4=O)cc3F)c2nc1OC [Compound 44, N-[4-[(6,7-Dimethoxy-1,5-naphthyridin-4-yl)oxy]-3-fluorophenyl]-5-(4-fluorophenyl)-4-oxo-1-propan-2-ylpyridine-3-carboxamide] | < 100 | < 100 | < 100 | 100 to 300
2 | COc1cc2nccc(Oc3ccc(NC(=O)c4cn(C(C)C)c(C)c(-c5ccc(Cl)c(Cl)c5)c4=O)cc3F)c2cc1OC [Compound 23, 5-(3,4-Dichlorophenyl)-N-[4-(6,7-dimethoxyquinolin-4-yl)oxy-3-fluorophenyl]-6-methyl-4-oxo-1-propan-2-ylpyridine-3-carboxamide] | < 100 | < 100 | 100 to 300 | > 300
3 | COc1cc2nccc(Oc3ccc(NC(=O)c4cn(C(C)C)cc(-c5ccc(F)cc5)c4=O)cc3F)c2cc1OC [Compound 43, N-[4-(6,7-Dimethoxyquinolin-4-yl)oxy-3-fluorophenyl]-5-(4-fluorophenyl)-4-oxo-1-propan-2-ylpyridine-3-carboxamide] | < 100 | < 100 | < 100 | < 100
4 | COc1cc2nccc(Oc3ccc(NC(=O)c4cn(C(C)C)c(C)c(-c5ccc(F)cc5)c4=O)cc3F)c2cc1OC [Compound 22, N-[4-(6,7-Dimethoxyquinolin-4-yl)oxy-3-fluorophenyl]-5-(4-fluorophenyl)-6-methyl-4-oxo-1-propan-2-ylpyridine-3-carboxamide] | < 100 | < 100 | < 100 | 100 to 300
5 | COc1cc2nccc(Oc3ccc(NC(=O)c4cn(C5CC5)cc(-c5ccc(F)cc5)c4=O)cc3F)c2nc1OC [Compound 41, 1-Cyclopropyl-N-[4-[(6,7-dimethoxy-1,5-naphthyridin-4-yl)oxy]-3-fluorophenyl]-5-(4-fluorophenyl)-4-oxopyridine-3-carboxamide] | < 100 | < 100 | < 100 | 100 to 300
6 | COc1cc2nccc(Oc3ccc(NC(=O)c4cn(C5CCCC5)c(C)c(-c5ccc(F)c(Cl)c5)c4=O)cc3F)c2nc1OC [Compound 27, 5-(3-Chloro-4-fluorophenyl)-1-cyclopentyl-N-[4-[(6,7-dimethoxy-1,5-naphthyridin-4-yl)oxy]-3-fluorophenyl]-6-methyl-4-oxopyridine-3-carboxamide] | < 100 | < 100 | < 100 | < 100
7 | COc1cc2nccc(Oc3ccc(NC(=O)c4cn(C(C)C)c(C)c(-c5ccc(F)cc5)c4=O)cc3F)c2nc1OC [Compound 21, N-[4-[(6,7-Dimethoxy-1,5-naphthyridin-4-yl)oxy]-3-fluorophenyl]-5-(4-fluorophenyl)-6-methyl-4-oxo-1-propan-2-ylpyridine-3-carboxamide] | < 100 | < 100 | < 100 | < 100
8 | CNc1ncc(C(=O)Nc2ccc(Oc3ccnc4cc(OC)c(OC)nc34)c(F)c2)c(=O)n1-c1ccc(F)cc1 [Compound 99, N-[4-[(6,7-Dimethoxy-1,5-naphthyridin-4-yl)oxy]-3-fluorophenyl]-1-(4-fluorophenyl)-2-(methylamino)-6-oxopyrimidine-5-carboxamide] | < 100 | < 100 | < 100 | < 100
9 | COc1cc2nccc(Oc3ccc(NC(=O)c4cncc(-c5ccc(F)cc5)c4O)cc3F)c2nc1OC [Compound 42, N-[4-[(6,7-Dimethoxy-1,5-naphthyridin-4-yl)oxy]-3-fluorophenyl]-5-(4-fluorophenyl)-4-hydroxypyridine-3-carboxamide] | < 100 | < 100 | < 100 | < 100
10 | COc1cc2nccc(Oc3ccc(NC(=O)c4c[nH]c(=S)n(-c5ccc(F)cc5)c4=O)cc3F)c2nc1OC [Compound 104, N-[4-[(6,7-Dimethoxy-1,5-naphthyridin-4-yl)oxy]-3-fluorophenyl]-3-(4-fluorophenyl)-4-oxo-2-sulfanylidene-1H-pyrimidine-5-carboxamide] | > 300 | > 300 | < 100 | < 100
11 | COc1cc2nccc(Oc3ccc(NC(=O)c4cn(C(C)C)c(C)c(-c5ccc(F)c(Cl)c5)c4=O)cc3F)c2nc1OC [Compound 24, 5-(3-Chloro-4-fluorophenyl)-N-[4-[(6,7-dimethoxy-1,5-naphthyridin-4-yl)oxy]-3-fluorophenyl]-6-methyl-4-oxo-1-propan-2-ylpyridine-3-carboxamide] | < 100 | < 100 | < 100 | 100 to 300
12 | COc1cc2nccc(Oc3ccc(NC(=O)c4cn(C(C)C)c(C)c(-c5ccc(Cl)c(Cl)c5)c4=O)cc3F)c2nc1OC [Compound 25, 5-(3,4-Dichlorophenyl)-N-[4-[(6,7-dimethoxy-1,5-naphthyridin-4-yl)oxy]-3-fluorophenyl]-6-methyl-4-oxo-1-propan-2-ylpyridine-3-carboxamide] | < 100 | < 100 | < 100 | 100 to 300
13 | COc1cc2nccc(Oc3ccc(NC(=O)c4cn(C5CCCC5)c(C)c(-c5ccc(F)cc5)c4=O)cc3F)c2nc1OC [Compound 26] | < 100 | < 100 | < 100 | < 100
14 | COc1cc2nccc(Oc3ccc(NC(=O)c4cn(C)cc(-c5ccc(F)cc5)c4=O)cc3F)c2nc1OC [Compound 45, N-[4-[(6,7-Dimethoxy-1,5-naphthyridin-4-yl)oxy]-3-fluorophenyl]-5-(4-fluorophenyl)-1-methyl-4-oxopyridine-3-carboxamide] | < 100 | < 100 | < 100 | < 100
15 | COc1cc2nccc(Oc3ccc(NC(=O)c4cn(C5COC5)cc(-c5ccc(F)cc5)c4=O)cc3F)c2nc1OC [Compound 47, N-[4-[(6,7-Dimethoxy-1,5-naphthyridin-4-yl)oxy]-3-fluorophenyl]-5-(4-fluorophenyl)-1-(oxetan-3-yl)-4-oxopyridine-3-carboxamide] | < 100 | < 100 | < 100 | > 300
16 | COc1cc2nccc(Oc3ccc(NC(=O)c4cn(C5CCCC5)cc(-c5ccc(F)cc5)c4=O)cc3F)c2nc1OC [Compound 46, 1-Cyclopentyl-N-[4-[(6,7-dimethoxy-1,5-naphthyridin-4-yl)oxy]-3-fluorophenyl]-5-(4-fluorophenyl)-4-oxopyridine-3-carboxamide] | < 100 | < 100 | < 100 | 100 to 300
